Assay results: patent publication US6699842B1, “Dominant negative deletion mutants of C-jun and their use in the prevention and treatment of cancer” (The United States of America as represented by the …, priority 1994, dated 2004)

Legend:
Type in all cases: cell-based, mouse
[1] = tested on: JB6 P+ Cl 41.5a cells; assay: soft agar transformation assay, JB6 P+ Cl 41.5a cells; conditions: 3 ng/ml TPA, 14 days in 0.33% agar, FA 10^−9-10^−7 M, RA 10^−9-10^−6 M
Description: (§1) In order to test whether the same concentration ranges of inhibitors shown in FIGS. 2A and 2B to repress TPA-induced AP-1 activity could also block TPA-induced transformation, a soft agar transformation assay was carried out on JB6 P^+ Cl 41 (cross-hatched bar) or JB6 P^+ Cl 41.5a (closed bar) cells exposed in 0.33% agar for 14 days to 0.01% DMSO alone, 3 ng/ml TPA alone (TPA), 10^−7 or 10^−8 M FA alone (FA7 and FA8, respectively), 10^−6 M RA alone (RA6) 3 ng/ml TPA in the presence of 10^−7-10^−9 M FA (TFA7, TFA8, TFA9) or to 3 ng/ml TPA in 10^−6-10^−9 M retinoic acid (TRA6, TRA7, TRA8, TRA9). Treated cells were scored for colonies after 14 days in agar and transformation response was expressed as the number of soft agar colonies/10^4 suspended cells. […] In agreement with an earlier observation by De Benedetti et al. ((1991) Cancer Res., 51:1158-1164), the sensitivity of Cl 41.5a cells to antipromotion by RA appeared to be greater than that observed with the Cl 41 cells. More importantly, the concentration-dependent range of FA effective in blocking TPA-induced transformation appeared identical to that range which was active in blocking TPA-induced CAT activity by FA (10^−9 M to 10^−7 M FA, see TFA7, TFA8 and TFA9 in FIG. 2A). […]

[2] = tested on: JB6 P+ Cl 41 cells; assay: soft agar transformation assay, JB6 P+ Cl 41 cells; conditions: 3 ng/ml TPA, 14 days in 0.33% agar, FA 10^−9-10^−7 M, RA 10^−9-10^−6 M
Description: as §1

[3] = tested on: AP-1; assay: CAT assay with stromelysin promoter reporter P750TRCAT (AP-1 dependent) in JB6 P+ Cl 41 cells; conditions: for inhibition of TPA-induced CAT activity: 8 hours
Text: The plasmid constructs used in the following examples were as follows: P750TRCAT is a CAT reporter construct containing 750 bp of the rat stromelysin promoter driving the heterogolous gene chloramphenicol acetyl-transferase (CAT). This construct contains an AP-1 binding sequence at position −70 (Matrisian, L. M. et al. (1991) Am. J. Medic. Sci., 302: 157-162, Kerr, L. D. et al. (1988) Science., 242: 1424-1427, McDonnell, S. E. et al. (1990) Mol. Cell. Biol. 105 4284-4293). The mTRE-CAT reporter is a site-directed mutant with 2 point mutations in the AP-1 site (Matrisian, L. M. et al. (1991) Am. J. Medic. Sci., 302: 157-162) and the mPEA3-CAT reporter is a site-directed mutant in which point mutations in each of the PEA3 sites at position −208 to −200 and −191 to −199 of the stromelysin promoter were introduced using a protocol provided with the site-directed mutagenesis kit of Amersham Corp. (Arlington Heights, Ill.) and an oligonucleotide having SEQ ID NO.:1 GCAAGAAGCATTTCTTGG.
In brief, JB6 Cl 41 (P^+) cells transfected for 4-5 hours using a standard calcium phosphate transfection procedure (Sambrook, J. et al. (1989) “Molecular Cloning, A Laboratory Manual” Cold Spring Harbor Laboratory Press, Cold Spring Harbor, N.Y.) with 10 μg of one of three CAT reporter plasmid DNAs, P750TRCAT, mTRE-CAT or mPEA3-CAT and 10 μg of sheared genomic DNA isolated from Cl 41 cells were then changed to medium containing 2% fetal calf serum and twenty-four to forty-two hours later, were treated with either 0.1% of DMSO, 10 ng/ml of TPA or 10 ng/ml EGF for eight hours prior to preparation of total cell extracts. CAT enzyme activity was assayed using a diffusion-based CAT assay according to the protocol provided by the manufacturers (New England Nuclear, Del.). The results are expressed as the rate of accumulation of [^14C]-acetylated product relative to solvent controls (DMSO).
In order to determine whether TPA-induced CAT activity in JB6 P^+ cells is capable of being abolished, TPA induced CAT activity was measured in the presence of the known AP-1 inhibitors retinoic acid (RA) and fluocinolone acetonide (FA). In brief, JB6 P^+ Cl 41 cells were transfected with 10 μg of P750TRCAT and 10 μg of sheared genomic DNA from Cl 41 cells as in Example 1. 24-42 hours after transfection, cells were then exposed for 8 hours to either 0.1% DMSO, […] (TPA), 10^−7 M fluocinolone acetonide (FA) in the absence of 10 ng/ml TPA (FA7), 10^−9, 10^−8 and 10^−7 M FA in the presence of 10 ng/ml TPA (TFA9, TFA8, TFA7, respectively), 10^−5 M retinoic acid (RA) in the absence of 10 ng/ml TPA (RA5), or to 10^−7, 10^−6 and 10^−5 M RA in the presence of 10 ng/ml TPA (TRA7, TRA6, TRA5 respectively). Following the above treatments, total cell extracts were prepared and CAT enzyme activity was assayed as in Example 1. As before, the results are expressed as the rate of accumulation of ^14C-acetylated product relative to solvent controls.
In order to determine whether an overexpressed TAM67 protein could repress TPA-induced CAT activity in JB6 P^+ cells, eight TAM67 clonal transfectants (M1-M8) and three neo-only clonal transfectants (N1-N3) were transfected with 10 μg of P750TRCAT reporter plasmid using the standard calcium phosphate protocol described in. Example 1. Forty two hours after transfection with P750TRCAT, the cells were exposed to either 0.01% DMSO (closed bar, FIG. 5A), or 10 ng/ml TPA (crossed-hatched bar, FIG. 5A) or, to water (closed bar, FIG. 5B) or 10 ng/ml EGF (cross-hatched bar, FIG. 5B) for eight hours. Total cell extracts were then prepared from the treated cells and assayed for CAT activity as described in Example 1.

[4] = tested on: c-Jun; assay: immunoprecipitation and densitometry of c-Jun protein in stable JB6 transfectants; conditions: 10 ng/ml, fifteen hours, TAM67 or Neo-only transfectants
Description: Three TAM67 clonal transfectants (M4, M3, M6) and one neo-only clonal transfectant (N1) were treated for fifteen hours with either 10 ng/ml TPA (T), 10 ng/ml EGF (E), or 0.1% DMSO (D) prior to metabolic labelling for two hours with 0.2 mCi/ml ^35S -methionine (Amersham, Rockford, Ill.) (Sun, Y. et al. (1993) Mol. Carcinogenesis, 8: 49-57). Cellular lysates were then collected and immunoprecipitations using polyclonal rabbit c-jun antibody (AB-1 antibody, Oncogene Science) were carried out overnite at 4° C. (Sun et al. (1993)). These immunoprecipitates were then analyzed by electrophoresis on 12.5% SDS polyacrylamide gels and these gels are shown in FIG. 4.

Q: Which “TPA-induced transformation (soft agar colonies/10^4 suspended cells)” value [1] does the source give for `CC1(C)O[C@@H]2C[C@H]3[C@@H]4C[C@H](F)C5=CC(=O)C=C[C@]5(C)[C@@]4(F)[C@@H](O)C[C@]3(C)[C@]2(C(=O)CO)O1` [FA, Fluocinolone acetonide] here?
A: Its value is “blocked TPA-induced transformation in a concentration-dependent manner”.

Q: And the “TPA-induced transformation (soft agar colonies/10^4 suspended cells)” value [2]?
A: The value was “blocked TPA-induced transformation in a concentration-dependent manner”.

Q: What about the “inhibition of TPA-induced CAT activity” value ([3]; 10^−9-10^−7 M FA with 10 ng/ml TPA, P750TRCAT) of the same compound?
A: The value was “dose-dependent inhibition”.

Q: How did the “inhibition of TPA-induced CAT activity” value ([3]; 10^−7-10^−5 M RA with 10 ng/ml TPA, P750TRCAT) turn out when `CC1=C(/C=C/C(C)=C/C=C/C(C)=C/C(=O)O)C(C)(C)CCC1` [RA, retinoic acid] was run?
A: Its value is 90-100%.

Q: How did the “c-Jun protein levels (43 kDa band, densitometric analysis)” value [4] turn out when `CCCCCCCCCCCCCC(=O)O[C@@H]1[C@@H](C)[C@@]2(O)[C@@H](C=C(CO)C[C@]3(O)C(=O)C(C)=C[C@@H]23)[C@@H]2C(C)(C)[C@]12OC(C)=O` [TPA, 12-O-tetradecanoyl phorbol 13-acetate] was run?
A: The value was “no significant differences”.

Q: What about the “increase in AP-1 dependent CAT activity in neo-only transfectants” value ([3]; 10 ng/ml, eight hours, N1-N3 transfectants, P750TRCAT) of the same compound?
A: Its value is 3 to 4.5 fold.

Q: What about the “CAT activity relative to uninduced cells, P750TRCAT reporter” value ([3]; 10 ng/ml, eight hours, P750TRCAT-transfected JB6 P+ Cl 41 cells) of the same compound?
A: Its value is “about 2 fold”.

Q: And the “CAT activity relative to uninduced cells, mPEA3-CAT reporter” value ([3]; 10 ng/ml, eight hours, mPEA3-CAT-transfected JB6 P+ Cl 41 cells (PEA3 sites mutated))?
A: Its value is “about 2 fold”.

Q: What about the “inducibility of CAT activity, mTRE-CAT reporter” value ([3]; 10 ng/ml, eight hours, mTRE-CAT-transfected cells (AP-1 binding site mutated)) of the same compound?
A: Its value is “loss of inducibility”.
